Tested on: A375 multi-cell spheroids with HUVEC/MSC, viability
Assay: Anticancer human tumor A375 cell line growth inhibition [GQUAD];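 further: spheroids exposed to compounds for seven days before readout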
Conditions: for IC50: curve of first compound; for viability, T/C: stronger effect = lower value
In short: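 Multi-cell-type spheroids of tumor cells with HUVEC and mesenchymal stem cells, treated with drug combinations. Concentrations descend in half-log steps from near clinical Cmax, or from 10 microM where Cmax is unknown; viability read-out.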

[1] = second compound 0.0316 µM, first compound 0.0316 µM
[2] = second compound 0.0316 µM, first compound 0.1 µM
[3] = second compound 0.0316 µM, first compound 0.316 µM
[4] = second compound 0.0316 µM, first compound 1 µM
[5] = second compound 0.0316 µM, first compound 3.16 µM
[6] = second compound 0.0316 µM, first compound 10 µM
[7] = second compound 0.1 µM, first compound 0.0316 µM
[8] = second compound 0.1 µM, first compound 0.1 µM
[9] = second compound 0.1 µM, first compound 0.316 µM
[10] = second compound 0.1 µM, first compound 1 µM
[11] = second compound 0.1 µM, first compound 3.16 µM
[12] = second compound 0.1 µM, first compound 10 µM
[13] = second compound 0.316 µM, first compound 0.0316 µM
[14] = second compound 0.316 µM, first compound 0.1 µM
[15] = second compound 0.316 µM, first compound 0.316 µM
[16] = second compound 0.316 µM, first compound 1 µM
[17] = second compound 0.316 µM, first compound 3.16 µM
[18] = second compound 0.316 µM, first compound 10 µM
[19] = second compound 1 µM, first compound 0.0316 µM
[20] = second compound 1 µM, first compound 0.1 µM
[21] = second compound 1 µM, first compound 0.316 µM
[22] = second compound 1 µM, first compound 1 µM
[23] = second compound 1 µM, first compound 3.16 µM
[24] = second compound 1 µM, first compound 10 µM
[25] = second compound 3.16 µM, first compound 0.0316 µM
[26] = second compound 3.16 µM, first compound 0.1 µM
[27] = second compound 3.16 µM, first compound 0.316 µM
[28] = second compound 3.16 µM, first compound 1 µM
[29] = second compound 3.16 µM, first compound 3.16 µM
[30] = second compound 3.16 µM, first compound 10 µM
[31] = second compound 10 µM, first compound 0.0316 µM
[32] = second compound 10 µM, first compound 0.1 µM
[33] = second compound 10 µM, first compound 0.316 µM
[34] = second compound 10 µM, first compound 1 µM
[35] = second compound 10 µM, first compound 3.16 µM
[36] = second compound 10 µM, first compound 10 µM

Molecule `CC(C)(O)C1CCC(Nc2ccc3ncc(-c4cccc(C(F)(F)F)c4)n3n2)CC1` (centres undefined) + CN(C)c1ccc(Nc2c3ccc(NC(=O)CCN4CCCC4)cc3nc3cc(NC(=O)CCN4CCCC4)ccc23)cc1 has an IC50 (second compound 0.0316 µM) greater than 10 µM, an IC50 (second compound 0.1 µM) greater than 10 µM and an IC50 (second compound 0.316 µM) greater than 10 µM. It also gave an IC50 (second compound 1 µM) greater than 10 µM, an IC50 (second compound 3.16 µM) of 10 µM and an IC50 (second compound 10 µM) of 2.18 µM. The viability, T/C [1] was 95.9%, the viability, T/C [2] was 93% and the viability, T/C [3] was 95.7%. It also gave a viability, T/C [4] of 104%, a viability, T/C [5] of 84% and a viability, T/C [6] of 92.9%. It also gave a viability, T/C [7] of 93.1%, a viability, T/C [8] of 92.6% and a viability, T/C [9] of 96.6%. It also gave a viability, T/C [10] of 90.6%, a viability, T/C [11] of 79.2% and a viability, T/C [12] of 88.5%. For the same molecule, the viability, T/C [13] was 99%, the viability, T/C [14] was 91.2% and the viability, T/C [15] was 88.9%. It also gave a viability, T/C [16] of 104%, a viability, T/C [17] of 80.6% and a viability, T/C [18] of 92.8%. For the same molecule, the viability, T/C [19] was 96.7%, the viability, T/C [20] was 92.4% and the viability, T/C [21] was 97.7%. For the same molecule, the viability, T/C [22] was 95.1%, the viability, T/C [23] was 75.9% and the viability, T/C [24] was 85%. For the same molecule, the viability, T/C [25] was 93.7%, the viability, T/C [26] was 99.2% and the viability, T/C [27] was 97.7%. It also gave a viability, T/C [28] of 98.1%, a viability, T/C [29] of 49.6% and a viability, T/C [30] of 68.7%. It also gave a viability, T/C [31] of 94.6%, a viability, T/C [32] of 91.2% and a viability, T/C [33] of 96.7%. It also gave a viability, T/C [34] of 84.9%, a viability, T/C [35] of 25.9% and a viability, T/C [36] of 40.9%.

`O=c1[nH]cc(F)c(=O)[nH]1` + CN(C)c1ccc(Nc2c3ccc(NC(=O)CCN4CCCC4)cc3nc3cc(NC(=O)CCN4CCCC4)ccc23)cc1 gave an IC50 (second compound 0.0316 µM) greater than 10 µM, an IC50 (second compound 0.1 µM) greater than 10 µM and an IC50 (second compound 0.316 µM) greater than 10 µM. It also gave an IC50 (second compound 1 µM) greater than 10 µM, an IC50 (second compound 3.16 µM) greater than 10 µM and an IC50 (second compound 10 µM) greater than 10 µM. The viability, T/C [1] was 98.7%, the viability, T/C [2] was 107% and the viability, T/C [3] was 97.2%. The viability, T/C [4] was 106%, the viability, T/C [5] was 109% and the viability, T/C [6] was 99.3%. The viability, T/C [7] was 99.8%, the viability, T/C [8] was 104% and the viability, T/C [9] was 99.3%. For the same molecule, the viability, T/C [10] was 103%, the viability, T/C [11] was 106% and the viability, T/C [12] was 96.8%. For the same molecule, the viability, T/C [13] was 112%, the viability, T/C [14] was 102% and the viability, T/C [15] was 97.8%. The viability, T/C [16] was 103%, the viability, T/C [17] was 107% and the viability, T/C [18] was 92.9%. The viability, T/C [19] was 108%, the viability, T/C [20] was 100% and the viability, T/C [21] was 94.2%. The viability, T/C [22] was 104%, the viability, T/C [23] was 105% and the viability, T/C [24] was 96%. It also gave a viability, T/C [25] of 108%, a viability, T/C [26] of 98.1% and a viability, T/C [27] of 101%. It also gave a viability, T/C [28] of 99.1%, a viability, T/C [29] of 100% and a viability, T/C [30] of 95.4%. The viability, T/C [31] was 106%, the viability, T/C [32] was 94.4% and the viability, T/C [33] was 101%. For the same molecule, the viability, T/C [34] was 102%, the viability, T/C [35] was 105% and the viability, T/C [36] was 98.4%.
